Measured values as given in patent US7078499B2, “Nucleotide analogues comprising a reporter moiety and a polymerase enzyme blocking moiety” (GE Healthcare UK Limited, priority 2000, dated 2006).

Legend:
Assay type in all cases: biochemical
Parameters in all cases: key to result of incorporation (termination / further chain extension): T: Incorporation results in termination; E: Incorporation permits further chain extension; T/E: Predominant product is primer extended by one base, but evidence of some further extension also observed
Thermosequenase = assay: Thermostable DNA polymerase primer extension, TS; conditions: DNA template, 45° C. for 20–40 minutes; for primer extended by at least one base within assay time (grade): TTP replaced entirely by test compound
Experimental: (§1) DNA polymerase assays were performed using Sequence 1 as primer and Sequence 2 as template. • Sequence 1 5′[Cy3]TAACTCATTAACAGGATC 3′ • Sequence 2 5′AT TCGCGGTATTCTGGTATGAAGCTTTTAGATCCTGTTAATGAGTTA GTA3′
(§2) The template (Sequence 2) was designed such that the base (underlined) immediately adjacent to the 3′ end of the hybridised primer is complementary to the nucleotide test compound. Nucleotide test compounds were compounds (6) (4′-C-(glycylaminomethyl)thymidine triphosphate), (8) (4′-C-(N-trifluoroacetyaminomethyl)thymidine triphosphate) and (9) (4′-C-(aminomethyl)thymidine triphosphate) as described above.
(§3) Primer extension reactions were performed using the above primers in the presence of 40 to 80 μM of nucleotide triphosphates. Positive control reactions contained all four native nucleotide triphosphates. For the other reactions the TTP was replaced with either a 2:1 ratio of […] for the terminator control, or entirely by the test compound The enzymes were used at a final concentration of 0.175 units/μl and a magnesium ion concentration of 2.5 mM in buffers supplied by the manufacturer. The primer and template concentrations were 0.5 pmol/μl and 2 pmol/μl respectively.
(§4) Extension reactions with thermophilic enzymes were performed by initially denaturing the fully assembled reactions at 70° C. for 5 min. followed by 45° C. for 20–40 minutes. The following enzymes were used: Taq DNA polymerase (Taq); Thermosequenase (TS); Thermosequenase II (TSII); Thermosequenase E (TSE), Tfl DNA polymerase (Tfl); Tth DNA polymerase (Tth), deltaTts DNA polymerase (deltaTts), deltaTts D DNA polymerase (dettaTTSD) (all from APBiotech); Pfu DNA polymerase (Pfu) (Stratagene Ltd); Vent™ DNA polymerase (Vent) (New England Biolabs).
(§5) The reactions were stopped by adding a 0.5 volume aliquot of 80% formamide containing 0.1% (w/v) bromophenol blue and 0.1% (w/v) cresol blue. The reaction products were separated by denaturing gel electrophoresis at a constant power of 45 W on 16% polyacrylamide gels containing 50% urea.
(§6) Gels were scanned for Cy3 fluorescence on a Molecular Dynamics Fluorimager and the data analysed using Molecular Dynamics ImageQuant 5 software.
(§7) The incorporation of a test nucleotide triphosphate results in the appearance on a polyacrylamide gel of a single band corresponding to a single base extension product. If, however, the enzyme adds additional bases then further bands would be observed that corresponded to either the full-length product or positions of other complementary bases in the template.

Thermosequenase II = assay: Thermostable DNA polymerase primer extension, TSII; conditions: DNA template, 45° C. for 20–40 minutes; for primer extended by at least one base within assay time (grade): TTP replaced entirely by test compound
Experimental: as §1, §2, §3, §4, §5, §6, §7

Tfl DNA polymerase = molecular target: T1, Tfl DNA polymerase (Thermus thermophilus, UniProt P30313); assay: Thermostable DNA polymerase primer extension, Tfl; conditions: DNA template, 45° C. for 20–40 minutes; for primer extended by at least one base within assay time (grade): TTP replaced entirely by test compound
T1 construct: purchased APBiotech
T1 sequence (P30313 whole entry): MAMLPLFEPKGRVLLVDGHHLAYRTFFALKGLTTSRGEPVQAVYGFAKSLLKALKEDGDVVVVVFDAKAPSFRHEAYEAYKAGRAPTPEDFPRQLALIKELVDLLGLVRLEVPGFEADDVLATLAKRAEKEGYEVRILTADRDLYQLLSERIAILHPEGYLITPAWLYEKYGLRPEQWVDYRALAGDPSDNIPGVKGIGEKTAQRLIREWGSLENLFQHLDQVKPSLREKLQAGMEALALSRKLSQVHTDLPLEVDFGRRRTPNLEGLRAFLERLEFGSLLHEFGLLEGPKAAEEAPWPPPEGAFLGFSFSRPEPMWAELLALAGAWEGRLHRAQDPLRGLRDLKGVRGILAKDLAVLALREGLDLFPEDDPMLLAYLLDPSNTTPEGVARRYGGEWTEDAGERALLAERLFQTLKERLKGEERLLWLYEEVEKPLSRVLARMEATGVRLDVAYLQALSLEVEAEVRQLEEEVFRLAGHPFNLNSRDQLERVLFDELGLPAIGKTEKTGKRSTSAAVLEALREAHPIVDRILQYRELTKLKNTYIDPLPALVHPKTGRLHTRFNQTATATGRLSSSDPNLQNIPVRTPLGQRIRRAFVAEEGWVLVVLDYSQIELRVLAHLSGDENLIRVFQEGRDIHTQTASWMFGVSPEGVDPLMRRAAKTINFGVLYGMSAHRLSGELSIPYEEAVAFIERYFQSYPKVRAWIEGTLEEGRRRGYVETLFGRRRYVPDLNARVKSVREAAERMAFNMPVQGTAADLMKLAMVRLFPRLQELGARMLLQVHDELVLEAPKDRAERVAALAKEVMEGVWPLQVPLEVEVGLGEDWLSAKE
Experimental: as §1, §2, §3, §4, §5, §6, §7

phi-29 DNA polymerase = molecular target: T2, phi-29 DNA polymerase (Bacillus phage phi29, UniProt P03680); assay: Mesophilic DNA polymerase primer extension, phi-29; conditions: DNA template, 37° C. for 20–40 minutes; for primer extended by at least one base within assay time (grade): TTP replaced entirely by test compound
T2 construct: purchased AP Biotech
T2 sequence (P03680 whole entry): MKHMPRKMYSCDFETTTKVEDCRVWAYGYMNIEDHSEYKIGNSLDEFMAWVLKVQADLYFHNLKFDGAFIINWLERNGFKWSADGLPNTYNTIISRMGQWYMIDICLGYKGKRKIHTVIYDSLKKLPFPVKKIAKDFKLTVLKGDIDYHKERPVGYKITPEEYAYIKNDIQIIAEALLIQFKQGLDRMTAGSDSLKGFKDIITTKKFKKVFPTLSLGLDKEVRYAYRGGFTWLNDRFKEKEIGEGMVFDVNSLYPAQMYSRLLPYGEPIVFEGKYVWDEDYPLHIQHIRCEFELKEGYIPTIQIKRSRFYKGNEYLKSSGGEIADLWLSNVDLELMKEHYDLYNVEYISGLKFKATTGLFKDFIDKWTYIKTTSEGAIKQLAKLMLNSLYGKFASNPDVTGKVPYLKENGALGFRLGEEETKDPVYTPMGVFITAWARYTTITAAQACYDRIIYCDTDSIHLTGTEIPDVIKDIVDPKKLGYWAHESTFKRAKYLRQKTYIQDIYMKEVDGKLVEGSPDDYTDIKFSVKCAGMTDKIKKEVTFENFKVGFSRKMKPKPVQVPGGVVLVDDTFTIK
Experimental: as §1, §2, §3
(§8) Extension reactions preformed with mesophilic polymerases were carried out by mixing all the components of the reaction except the enzyme and heating to 70° C. for 5 min. After the reactions had cooled to room temperature 0.175 units of the enzyme were added and the reactions heated to 37° C. for 20–40 minutes. The following enzymes were used: T7 DNA polymerase (T7); Sequenase 2™ (Seq); Klenow fragment of DNA polymerase 1 (Klen); phi-29 DNA polymerase (Phi-29); T4 DNA polymerase (T4) (all from AP Biotech) and Bst DNA polymerase (Bst) (Cambio Ltd).
as §5, §6, §7

T4 DNA polymerase = molecular target: T3, T4 DNA polymerase (Enterobacteria phage T4, UniProt P04415); assay: Mesophilic DNA polymerase primer extension, T4; conditions: DNA template, 37° C. for 20–40 minutes; for primer extended by at least one base within assay time (grade): TTP replaced entirely by test compound
T3 construct: purchased AP Biotech
T3 sequence (P04415 1-898): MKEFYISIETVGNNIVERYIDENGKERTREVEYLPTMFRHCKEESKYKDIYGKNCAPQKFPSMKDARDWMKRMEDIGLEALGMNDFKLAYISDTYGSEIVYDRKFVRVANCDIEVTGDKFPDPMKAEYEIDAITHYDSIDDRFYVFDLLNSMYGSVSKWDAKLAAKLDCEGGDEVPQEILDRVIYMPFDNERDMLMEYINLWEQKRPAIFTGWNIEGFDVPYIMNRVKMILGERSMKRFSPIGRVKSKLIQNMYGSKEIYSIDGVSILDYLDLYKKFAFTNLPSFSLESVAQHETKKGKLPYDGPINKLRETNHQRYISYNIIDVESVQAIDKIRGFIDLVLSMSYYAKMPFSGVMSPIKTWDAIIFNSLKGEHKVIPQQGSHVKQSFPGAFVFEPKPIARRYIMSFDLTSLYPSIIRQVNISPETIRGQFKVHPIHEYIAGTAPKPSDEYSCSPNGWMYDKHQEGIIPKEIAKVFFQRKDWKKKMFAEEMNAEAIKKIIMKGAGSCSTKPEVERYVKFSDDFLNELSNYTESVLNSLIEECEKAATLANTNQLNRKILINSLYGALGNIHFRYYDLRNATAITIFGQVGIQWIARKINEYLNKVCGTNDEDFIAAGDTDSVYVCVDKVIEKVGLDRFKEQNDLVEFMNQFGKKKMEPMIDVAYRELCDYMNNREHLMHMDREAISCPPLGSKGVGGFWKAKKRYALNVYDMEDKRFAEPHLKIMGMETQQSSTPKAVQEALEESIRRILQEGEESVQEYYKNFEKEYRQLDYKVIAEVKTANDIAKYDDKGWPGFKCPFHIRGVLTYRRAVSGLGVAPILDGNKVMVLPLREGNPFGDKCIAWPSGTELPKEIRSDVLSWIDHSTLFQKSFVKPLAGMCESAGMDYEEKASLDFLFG
Experimental: as §1, §2, §3, §8, §5, §6, §7

Compound | result of incorporation (termination / further chain extension) (Thermosequenase) | primer extended by at least one base within assay time (grade) (Thermosequenase) | result of incorporation (termination / further chain extension) (Thermosequenase II) | primer extended by at least one base within assay time (grade) (Thermosequenase II) | result of incorporation (termination / further chain extension) (Tfl DNA polymerase) | primer extended by at least one base within assay time (grade) (Tfl DNA polymerase) | result of incorporation (termination / further chain extension) (phi-29 DNA polymerase) | primer extended by at least one base within assay time (grade) (phi-29 DNA polymerase) | result of incorporation (termination / further chain extension) (T4 DNA polymerase) | primer extended by at least one base within assay time (grade) (T4 DNA polymerase)
4′-C-(Glycylaminomethyl)thymidine triphosphate [compound (6)] | T | + (up to 50% of primer extended by at least one base within assay time) | T | + (up to 50% of primer extended by at least one base within assay time) | T | +/− (up to 25% of primer extended by at least one base within assay time) | T | +/− (up to 25% of primer extended by at least one base within assay time) | T | + (up to 50% of primer extended by at least one base within assay time)
Cc1cn([C@H]2C[C@H](O)[C@@](CNC(=O)C(F)(F)F)(COP(=O)(O)OP(=O)(O)OP(=O)(O)O)O2)c(=O)[nH]c1=O [compound (8), 4′-C-(N-trifluoroacetylaminomethyl)thymidine triphosphate] | T | + (up to 50% of primer extended by at least one base within assay time) | T | + (up to 50% of primer extended by at least one base within assay time) | T | +/− (up to 25% of primer extended by at least one base within assay time) | T | +/− (up to 25% of primer extended by at least one base within assay time) | T | + (up to 50% of primer extended by at least one base within assay time)
4′-C-(Aminomethyl)thymidine triphosphate [compound (9)] | T | + (up to 50% of primer extended by at least one base within assay time) | T | + (up to 50% of primer extended by at least one base within assay time) | T | +/− (up to 25% of primer extended by at least one base within assay time) | T | +/− (up to 25% of primer extended by at least one base within assay time) | T | + (up to 50% of primer extended by at least one base within assay time)
